From PMC6272674, “Selected Compounds Structurally Related to Acyclic Sesquiterpenoids and Their Antibacterial and Cytotoxic Activity” (Molecules, 2015)

Legend:
[1] = system: Acinetobacter baumannii ATCC 19606; set-up: method as in doi:10.1002/ffj.3238; conditions: data presented by the authors before; cited from earlier work
MTT viability, IEC6 = format: cell-based; conditions: rat, IEC-6 small intestine epithelial cells, 1000 µM (IC50 exceeded 1000 µM), read-out: viability ± standard deviation at 1000 µM
Protocol: (§1) Cell lines and in vitro culture conditions: The human promyelocytic leukaemia cell line HL-60 was obtained from the Centre of Molecular and Macromolecular Biology in Łódź, Poland and was cultured in RPMI 1640 medium with 20% heat-inactivated fetal bovine serum (FBS). To reduce spontaneous differentiation, the cells were never allowed to exceed a concentration of 1.0 × 10^6 cells/mL. The human keratinocyte cell line HaCaT was obtained from Cell Lines Service, Germany (CLS) and cultured in DMEM medium with 10% FBS. Human colorectal adenocarcinoma HT29 and normal epithelial IEC-6 cell lines (from ATCC) were cultured in DMEM medium with 10% FBS. The human skin melanoma cell line MEWO (from CLS) was cultured in DMEM:F12 supplemented with 2 mM L-glutamine and 10% FBS. Human fibroblasts from gingiva isolated from original tissue, HFIB-G, (from Provitro) were cultured in Quantum 333 (from Immunique). The media were supplemented with 100 U/mL penicillin and 100 µg/mL streptomycin; all media components were obtained from Life Technologies. The adherent cell lines used in the studies were seeded on microplates before they exceeded 80% of confluence. Cells were cultured at 37 °C in 5% CO2 air atmosphere/95% air atmosphere.
(§2) Cytotoxic activity: The cells (the density for HL-60 was 0.5 × 10^4 cells/100 µL, otherwise it was 1 × 10^4 cells/100 µL) were plated into each well of 96-well microtiter plates and, after their attachment to the plate surface, treated with 10 µL of the indicated concentrations of compounds for 24 h. Viability was determined by MTT assay following the treatment. MTT (3-[4.5-dimethylthiazol-2-yl]-2.5-diphenyltetrazolium bromide; Sigma, St. Louis, MO, USA) solution was added to each well and incubated for another 4 h. The resulting MTT-formazan product was dissolved by the addition of lysis buffer (20% SDS and 50% DMF). The amount of formazan was determined by measuring absorbance at 570 nm with a Synergy 2 microplate reader (BioTek, Winooski, VT, USA) operated by the Gen5 program. The experiments were conducted three times with five replications. The results are expressed as an optical density ratio of the treatment to control. All data are presented as means ± SD.

[2] = system: Klebsiella pneumoniae ATCC 700603; set-up: method as in doi:10.1002/ffj.3238; conditions: data presented by the authors before; cited from earlier work
[3] = system: Enterococcus faecium ATCC 35667; set-up: method as in doi:10.1002/ffj.3238; conditions: data presented by the authors before; cited from earlier work
MTT viability, HT29 = format: cell-based, human; conditions: human, HT29 colorectal adenocarcinoma cells, 1000 µM (IC50 exceeded 1000 µM), read-out: viability ± standard deviation at 1000 µM
Protocol: as §1, §2

MTT viability, HFIG = format: cell-based, human; conditions: human, HFIG (HFIB-G) gingival fibroblasts, 1000 µM (IC50 exceeded 1000 µM), read-out: viability ± standard deviation at 1000 µM
Protocol: as §1, §2

MTT viability, HL-60 = format: cell-based, human; conditions: human, HL-60 promyelocytic leukaemia cells, HL-60, MTT, 1000 µM (IC50 exceeded 1000 µM), read-out: viability ± standard deviation at 1000 µM
Protocol: as §1, §2

[4] = system: Staphylococcus aureus ATCC 43300; set-up: method as in doi:10.1002/ffj.3238; conditions: data presented by the authors before; cited from earlier work
[5] = system: Enterococcus faecalis ATCC 51299; set-up: method as in doi:10.1002/ffj.3238; conditions: data presented by the authors before; cited from earlier work
MTT viability, MEWO = format: cell-based, human; conditions: human, MEWO malignant melanoma cells, 1000 µM (IC50 exceeded 1000 µM), read-out: viability ± standard deviation at 1000 µM
Protocol: as §1, §2

MTT viability, HaCaT = format: cell-based, human; conditions: human, HaCaT keratinocytes, 1000 µM (IC50 exceeded 1000 µM), read-out: viability ± standard deviation at 1000 µM
Protocol: as §1, §2

[6] = system: Escherichia coli ATCC 25922; set-up: method as in doi:10.1002/ffj.3238; conditions: data presented by the authors before; cited from earlier work

Structure (SMILES) | Minimum Inhibitory Concentrations MIC [1] [µg/mL] | viability at 24 h, 1000 µM (MTT viability, IEC6) [%] | Minimum Inhibitory Concentrations MIC [2] [µg/mL] | Minimum Inhibitory Concentrations MIC [3] [µg/mL] | viability at 24 h, 1000 µM (MTT viability, HT29) [%] | viability at 24 h, 1000 µM (MTT viability, HFIG) [%] | viability at 24 h, 1000 µM (MTT viability, HL-60) [%] | Minimum Inhibitory Concentrations MIC [4] [µg/mL] | Minimum Inhibitory Concentrations MIC [5] [µg/mL] | viability at 24 h, 1000 µM (MTT viability, MEWO) [%] | viability at 24 h, 1000 µM (MTT viability, HaCaT) [%] | Minimum Inhibitory Concentrations MIC [6] [µg/mL]
CC(=O)CCC=C(C)C(C)CCC=C(C)C (stereo not drawn) [Compound 6] | 12 | 95 | 14 | 16 | 102 | 83 | 67 | 26 | 18 | 102 | 118 | 14
CC(=O)CCC=CC(C)CCC=C(C)C (stereo not drawn) [Compound 7] | 14 | 82 | 16 | 18 | 98 | 92 | 67 | 26 | 16 | 99 | 101 | 16
CC(=O)CCC=C(C)C(C)CCCC(C)C (stereo not drawn) [Compound 8] | 22 | 97 | 18 | 28 | 111 | 81 | 72 | 38 | 26 | 94 | 90 | 18
CC(=O)CCC=C(C)CC(C)CCC=C(C)C (stereo not drawn) [Compound 9] | 16 | 76 | 18 | 14 | 107 | 85 | 69 | 28 | 18 | 83 | 89 | 28
CC(=O)CCC=C(C)CCC(C)CCC=C(C)C (stereo not drawn) [Compound 10] | 16 | 78 | 18 | 18 | 103 | 98 | 62 | 46 | 26 | 93 | 112 | 32
